Measured values as given in US11845740B2, “Glutaminyl cyclase inhibitors and the use thereof in treatment of various diseases” (OBSCHESTVO S OGRANICHENNOI OTVETSTVENNOSTIYU …, priority 2017, dated 2023).

Molecular target: recombinant intracellular human glutaminyl cyclase (Homo sapiens (Human), UniProt Q9NXS2)
Assay: Enzymatic activity of human glutaminyl cyclase in vitro (fluorescent substrate Gln-bNA)
Type: biochemical
Settings: 25° C., 50 μM Gln-bNA, pH 8.0
Method: The reaction mixture having a volume of 100-μl has contained 50 μM of fluorogenic substrate; ˜0.2 units of human pyroglutaminyl aminopeptidase (1 unit is defined as an amount hydrolyzing 1 micromole of pGlu-bNA per minute), and an aliquot of the recombinant intracellular human glutaminyl cyclase (gQC) in 50 mM trisaminomethane-HCl and 5% glycerol, a pH is 8.0.
The further course of the reaction was monitored spectrophotometrically (the wavelength of the excitation and emission were 320 and 410 nm). The enzyme activity was determined by an amount of the released 2-naphthyl amide (bNA), calculated from the calibration curve. The IC50 values were calculated using nonlinear regression of “inhibitor concentration”-“enzymatic activity” curve.

Sequence of recombinant intracellular human glutaminyl cyclase (Q9NXS2 whole entry): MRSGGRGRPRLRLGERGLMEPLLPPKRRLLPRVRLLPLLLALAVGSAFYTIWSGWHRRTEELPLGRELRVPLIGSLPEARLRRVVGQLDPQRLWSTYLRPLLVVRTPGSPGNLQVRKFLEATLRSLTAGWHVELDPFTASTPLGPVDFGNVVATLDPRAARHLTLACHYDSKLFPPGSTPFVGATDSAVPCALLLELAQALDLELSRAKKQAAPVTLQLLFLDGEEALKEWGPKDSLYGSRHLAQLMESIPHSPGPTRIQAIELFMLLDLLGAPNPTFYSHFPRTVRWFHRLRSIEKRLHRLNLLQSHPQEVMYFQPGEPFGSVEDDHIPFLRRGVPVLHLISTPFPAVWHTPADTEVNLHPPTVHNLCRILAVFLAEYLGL

In the case of O=C(NCCc1cnc[nH]1)NCCc1cnc[nH]1 [Compound III, N,N′-bis[2-(1H-imidazol-4-yl)ethyl]carbamide], the IC50 is reported as 3500 nM and the Ki is reported as 2000 nM.
